From the supplement of paper PMC11208160

Test: recombinant UMI read abundance after kanamycin selection (control-corrected) (log10(CPM+1)); higher = more efficient recombination; extreme values may be limits of the assay; sequences stand for … in AGTGCAGAGAAAATCGGCCAGTTTTCTCTGCCTGCAGTCCGCATGCCGTGGGACCCCTTGGGTTCTAACCTGTTGCCTAGATTTATGCAGCGGACTGCCTTTCTCCCAAAGTGATAAACCGG…AGGTTGGTTTCACT; site = the 11-nt donor
Procedure, shortened: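 After plating on IPTG (0.07 mM) plus kanamycin, or unselected, in two replicates, recombinant UMIs were PCR-amplified across the donor–target junction and sequenced. The cells were Escherichia coli co-electroporated with a UMI-tagged donor and donor-binding-loop pair library and a target plasmid with a fixed target and T7-inducible IS621 bridge recombinase. Values are log10(CPM+1), with CPM averaged over replicates and scaled by control-derived factors.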
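Note: IS621 bridge recombinase in Escherichia coli cells against a fixed T5 target plasmid.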

Sequence	recombinant UMI read abundance (log10)
GATTGGACATGGACCGGTTTTCCCGGTAATCCGTATTTGAA (site GATTGGACTTT)	0.419
GATTGGACATGGACCGGTTTTCCCGGTAATCCGTATTTGAC (site AATTGGACTGT)	0.543
GATTGGACATGGACCGGTTTTCCCGGTAATCCGTATTTGAC (site CATTGGACTGT)	0.263
GATTGGACATGGACCGGTTTTCCCGGTAATCCGTATTTGAC (site GAATGGACTGT)	1.41
GATTGGACATGGACCGGTTTTCCCGGTAATCCGTATTTGAC (site GACTGGACTGT)	0
GATTGGACATGGACCGGTTTTCCCGGTAATCCGTATTTGAC (site GAGTGGACTGT)	0
GATTGGACATGGACCGGTTTTCCCGGTAATCCGTATTTGAC (site GATAGGACTGT)	0.353
GATTGGACATGGACCGGTTTTCCCGGTAATCCGTATTTGAC (site GATCGGACTGT)	0.745
GATTGGACATGGACCGGTTTTCCCGGTAATCCGTATTTGAC (site GATGGGACTGT)	0
GATTGGACATGGACCGGTTTTCCCGGTAATCCGTATTTGAC (site GATTAGACTGT)	0
GATTGGACATGGACCGGTTTTCCCGGTAATCCGTATTTGAC (site GATTCGACTGT)	0
GATTGGACATGGACCGGTTTTCCCGGTAATCCGTATTTGAC (site GATTGAACTGT)	0
GATTGGACATGGACCGGTTTTCCCGGTAATCCGTATTTGAC (site GATTGCACTGT)	0
GATTGGACATGGACCGGTTTTCCCGGTAATCCGTATTTGAC (site GATTGGACTAT)	0.0111
GATTGGACATGGACCGGTTTTCCCGGTAATCCGTATTTGAC (site GATTGGACTCT)	0.00872
GATTGGACATGGACCGGTTTTCCCGGTAATCCGTATTTGAC (site GATTGGACTGA)	0.0103
GATTGGACATGGACCGGTTTTCCCGGTAATCCGTATTTGAC (site GATTGGACTGC)	0
GATTGGACATGGACCGGTTTTCCCGGTAATCCGTATTTGAC (site GATTGGACTGG)	0
GATTGGACATGGACCGGTTTTCCCGGTAATCCGTATTTGAC (site GATTGGACTGT)	0.659
GATTGGACATGGACCGGTTTTCCCGGTAATCCGTATTTGAC (site GATTGGACTTT)	0.0228
GATTGGACATGGACCGGTTTTCCCGGTAATCCGTATTTGAC (site GATTGGCCTGT)	0
GATTGGACATGGACCGGTTTTCCCGGTAATCCGTATTTGAC (site GATTGGGCTGT)	0
GATTGGACATGGACCGGTTTTCCCGGTAATCCGTATTTGAC (site GATTGGTCTGT)	0
GATTGGACATGGACCGGTTTTCCCGGTAATCCGTATTTGAC (site GATTGTACTGT)	0
GATTGGACATGGACCGGTTTTCCCGGTAATCCGTATTTGAC (site GATTTGACTGT)	0

Sequence	recombinant UMI read abundance (log10)
GATTGGACATGGACCGGTTTTCCCGGTAATCCGTATTTGAC (site GCTTGGACTGT)	0
GATTGGACATGGACCGGTTTTCCCGGTAATCCGTATTTGAC (site GGTTGGACTGT)	0.928
GATTGGACATGGACCGGTTTTCCCGGTAATCCGTATTTGAC (site GTTTGGACTGT)	0
GATTGGACATGGACCGGTTTTCCCGGTAATCCGTATTTGAC (site TATTGGACTGT)	1.83
GATTGGACATGGACCGGTTTTCCCGGTAATCCGTATTTGAG (site GATTGGACTAT)	0.00853
GATTGGACATGGACCGGTTTTCCCGGTAATCCGTATTTGAG (site GATTGGACTCT)	1.33
GATTGGACATGGACCGGTTTTCCCGGTAATCCGTATTTGAG (site GATTGGACTGT)	0
GATTGGACATGGACCGGTTTTCCCGGTAATCCGTATTTGAG (site GATTGGACTTT)	0.0197
GATTTATCATGGACCGGTTTTCCCGGTAATCCGTATTTGAA (site GATTTATCTTT)	1.64
GATTTATCATGGACCGGTTTTCCCGGTAATCCGTATTTGGC (site GATTTATCTGC)	1.38
GATTTGGCATGGACCGGTTTTCCCGGTAATCCGTATTTGTC (site GATTTGGCTGA)	0
GCAACCTCATGGACCGGTTTTCCCGGTAATCCGTATTTGCC (site GCAACCTCTGG)	0.0535
GCAACGCCATGGACCGGTTTTCCCGGTAATCCGTATTTGTA (site GCAACGCCTTA)	0.399
GCAACGCCATGGACCGGTTTTCCCGGTAATCCGTATTTGTA (site GCCACGCCTTA)	0.026
GCAACGCCATGGACCGGTTTTCCCGGTAATCCGTATTTGTA (site GCGACGCCTTA)	0.015
GCAACGCCATGGACCGGTTTTCCCGGTAATCCGTATTTGTA (site GCTACGCCTTA)	0.0211
GCAAGAGCATGGACCGGTTTTCCCGGTAATCCGTATTTGGC (site GCAAGAGCTGC)	1.82
GCAAGATCATGGACCGGTTTTCCCGGTAATCCGTATTTGGA (site GCAAGATCTTC)	1.69
GCAAGCTCATGGACCGGTTTTCCCGGTAATCCGTATTTGTG (site GCAAGCTCTCA)	2.55
GCACGACCATGGACCGGTTTTCCCGGTAATCCGTATTTGCA (site GCACGACCTTG)	0
GCACGTTCATGGACCGGTTTTCCCGGTAATCCGTATTTGGC (site GCACGTTCTGC)	2.74
GCACTTGCATGGACCGGTTTTCCCGGTAATCCGTATTTGGC (site GCACTTGCTGC)	2.1
GCAGAATCATGGACCGGTTTTCCCGGTAATCCGTATTTGCA (site ACAGTATCTTG)	1.67
GCAGAATCATGGACCGGTTTTCCCGGTAATCCGTATTTGCA (site GCAGAATCTTG)	2.13
GCAGACACATGGACCGGTTTTCCCGGTAATCCGTATTTGAT (site GCAGACACTAT)	1.89

Sequence	recombinant UMI read abundance (log10)
GCAGACCCATGGACCGGTTTTCCCGGTAATCCGTATTTGAT (site GCAGACCCTAT)	0.819
GCAGACCCATGGACCGGTTTTCCCGGTAATCCGTATTTGGG (site GCAGACCCTCC)	0.0178
GCAGAGACATGGACCGGTTTTCCCGGTAATCCGTATTTGCG (site ACAGAGACTCG)	2.51
GCAGAGACATGGACCGGTTTTCCCGGTAATCCGTATTTGCG (site CCAGAGACTCG)	2.58
GCAGAGACATGGACCGGTTTTCCCGGTAATCCGTATTTGCG (site GCAGAGACTCG)	2.45
GCAGAGACATGGACCGGTTTTCCCGGTAATCCGTATTTGCG (site TCAGAGACTCG)	2.34
GCAGCCCCATGGACCGGTTTTCCCGGTAATCCGTATTTGCT (site GCAGCCCCTAG)	2.32
GCAGCGGCATGGACCGGTTTTCCCGGTAATCCGTATTTGCC (site GCAGCGGCTGG)	1.22
GCAGGAGCATGGACCGGTTTTCCCGGTAATCCGTATTTGGA (site GCAGGAGCTTC)	1.41
GCAGGCACATGGACCGGTTTTCCCGGTAATCCGTATTTGCA (site GCAGGCACTTG)	2.39
GCAGGCGCATGGACCGGTTTTCCCGGTAATCCGTATTTGCG (site GCAGGCGCTCG)	2.03
GCAGGTGCATGGACCGGTTTTCCCGGTAATCCGTATTTGGC (site GCAGGTGCTGC)	1.53
GCAGTATCATGGACCGGTTTTCCCGGTAATCCGTATTTGCT (site ACAGTATCTTG)	0
GCAGTATCATGGACCGGTTTTCCCGGTAATCCGTATTTGCT (site GCAGTATCTAG)	2.7
GCAGTGTCATGGACCGGTTTTCCCGGTAATCCGTATTTGAT (site GCAGTGTCTAT)	2.82
GCAGTTACATGGACCGGTTTTCCCGGTAATCCGTATTTGGA (site GCAGTTACTTC)	1.1
GCATAGACATGGACCGGTTTTCCCGGTAATCCGTATTTGCC (site GAATAGACTGG)	0.0508
GCATAGACATGGACCGGTTTTCCCGGTAATCCGTATTTGCC (site GCATAGACTGG)	1.74
GCATAGACATGGACCGGTTTTCCCGGTAATCCGTATTTGCC (site GGATAGACTGG)	0
GCATAGACATGGACCGGTTTTCCCGGTAATCCGTATTTGCC (site GTATAGACTGG)	0
GCATGGTCATGGACCGGTTTTCCCGGTAATCCGTATTTGGA (site GCATGGTCTTC)	1.31
GCATGTGCATGGACCGGTTTTCCCGGTAATCCGTATTTGGT (site GCATGTGCTAC)	1.79
GCATTGACATGGACCGGTTTTCCCGGTAATCCGTATTTGTT (site GCATTGACTAA)	1.4
GCCAACTCATGGACCGGTTTTCCCGGTAATCCGTATTTGTT (site GCCAACTCTAA)	1.65
GCCAAGCCATGGACCGGTTTTCCCGGTAATCCGTATTTGCC (site GCCAAGCCTGG)	0
